Source: patent US9949981B2, “Compositions and methods for treating proliferation disorders” (Arqule, Inc., priority 2014, dated 2018)
Like-named read-outs stand apart in the source and are kept apart here.

Tests used:
SW962 = assay: MTS assay, combination study; conditions: Homo sapiens, SW 962, 72 h
OVMANA = assay: MTS assay, combination study; conditions: 72 h
NCI-H460 = assay: MTS assay, combination study; conditions: Homo sapiens, NCI-H460, 72 h
MDA-MB-231 = assay: MTS assay, combination study; conditions: Homo sapiens, MDA-MB-231, 72 h
EN = assay: MTS assay, combination study; conditions: 72 h
HEC-1B = assay: MTS assay, combination study; conditions: Homo sapiens, 72 h
[1] = test system: AKT1 phosphorylation in Proteus cell lines with differing AKT1 p.E17K; assay: Phosphorylation status of AKT1 in four Proteus cell lines from a single patient; conditions: with or without serum; 24 hours; FIGS. 8A and 8B
[2] = test system: S6 phosphorylation in Proteus cell lines with differing AKT1 p.E17K; assay: Phosphorylation status of S6 in four Proteus cell lines from a single patient; conditions: with or without serum; 24 hours; FIGS. 9A and 9B
Zr75-1 = assay: MTS assay; type: cell-based; conditions: Homo sapiens, ZR-75-1, read-out: Average of [CELL], IC50, MTS (72 hours; 10 Percent; FBS)
Excerpt: (§1) Cell proliferation analysis.

BT474 = assay: MTS assay; type: cell-based; conditions: Homo sapiens, BT-474, read-out: Average of [CELL], IC50, MTS (72 hours; 10 Percent; FBS)
Excerpt: as §1

HEC-251 = assay: MTS assay, combination study; conditions: HEC-251, 72 h
639-V = assay: MTS assay, combination study; conditions: Homo sapiens, 72 h
SCC-25 = assay: MTS assay, combination study; conditions: Homo sapiens, SCC-25, 72 h
MFE-280 = assay: MTS assay, combination study; conditions: Homo sapiens, MFE-280, 72 h
22Rv1 = assay: MTS assay, combination study; conditions: Homo sapiens, 22Rv1, 72 h
OVISE = assay: MTS assay, combination study; conditions: 72 h
SK-N-SH = assay: MTS assay, combination study; conditions: Homo sapiens, 72 h
MFE296 = assay: MTS assay, combination study; conditions: Homo sapiens, MFE-296, 72 h
HT-1197 = assay: MTS assay, combination study; conditions: Homo sapiens, HT1197, 72 h
NCI-H596 = assay: MTS assay, combination study; conditions: Homo sapiens, NCI-H596, 72 h
BT20 = assay: MTS assay, combination study; conditions: Homo sapiens, BT-20, 72 h
REC-1 = assay: MTS assay, combination study; conditions: Homo sapiens, Rec1, 72 h
[3] = test system: S6 phosphorylation in Proteus single cell clones; conditions: 24 hours
[4] = test system: pAKT in KU-19-19 (E17K) mutant bladder cancer cells; assay: pAKT in KU-19-19 cells, two hour treatment; conditions: normal medium, 2 hours, FIGS. 17 and 18
[5] = test system: S6 phosphorylation in PIK3CA p.H1047R mutation (PS109.3) or control cells (PS95.2); assay: Phosphorylation status of S6 in PIK3CA p.H1047R cells; type: cell-based, human; conditions: with or without serum; 24 hours; FIGS. 11A and 11B
U87MG = assay: MTS assay, combination study; conditions: Homo sapiens, U-87 MG, 72 h
Ca Ski = assay: MTS assay, combination study; conditions: Homo sapiens, 72 h
MDA-MB-468 = assay: MTS assay, combination study; conditions: Homo sapiens, MDA-MB-468, 72 h
SKOV-3 = assay: MTS assay, combination study; conditions: Homo sapiens, SK-OV-3, 72 h
[6] = test system: pPRAS40 in KU-19-19 (E17K) mutant bladder cancer cells; assay: pPRAS40 in KU-19-19 cells, two hour treatment; conditions: normal medium, 2 hours, FIGS. 17 and 18
TOV21G = assay: MTS assay, combination study; conditions: Homo sapiens, 72 h
SK-N-AS = assay: MTS assay, combination study; conditions: Homo sapiens, 72 h

Nc1ncccc1-c1nc2ccc(-c3ccccc3)nc2n1-c1ccc(C2(N)CCC2)cc1 [Compound 1, 3-(3-(4-(1-aminocyclobutyl)phenyl)-5-phenyl-3H-imidazo[4,5-b]pyridin-2-yl)pyridin-2-amine]
GI50 (SW962): 4.41 ± 0.17 µM | GI50 (OVMANA): 4.21 ± 0.93 µM | GI50 (NCI-H460): 12.5 ± 8.84 µM | GI50 (MDA-MB-231): 8.33 µM | GI50 (EN): 1.33 ± 0.57 µM | GI50 (HEC-1B): 4.09 ± 0.77 µM | phosphorylation status of AKT1 [1]: a decrease in phosphorylation with increasing dose | phosphorylation status of S6 (pS6) [2]: do not indicate any specific effect | IC50 (Zr75-1): 4.2 µM | IC50 (BT474): 1.3 µM | GI50 (HEC-251): 15.2 ± 0.24 µM | GI50 (639-V): 4.58 ± 0.05 µM | GI50 (SCC-25): 1.34 ± 0.85 µM | GI50 (MFE-280): 0.11 ± 0.08 µM | GI50 (22Rv1): 0.98 ± 0.36 µM | GI50 (OVISE): 2.2 ± 0.81 µM | GI50 (SK-N-SH): 4.52 ± 0.03 µM | GI50 (MFE296): 0.82 ± 0.38 µM | GI50 (HT-1197): 1.04 ± 0.34 µM | GI50 (NCI-H596): 6.87 ± 0.22 µM | GI50 (BT20): 5.75 ± 2.77 µM | GI50 (REC-1): 9.03 ± 1.15 µM | pS6 levels ([3]; A6B and E8F9A cells grown in normal medium, FIG. 7B): only a slight affect | pS6 levels ([3]; A6B and E8F9A cells grown in serum free medium, FIG. 7A): does not appear to have an effect on pS6 levels | pAKT [4]: inhibit | phosphorylation status of S6 [5]: a modest affect on mutation positive cells both with and without serum | GI50 (U87MG): 11.3 ± 2.49 µM | GI50 (Ca Ski): 5.82 ± 0.68 µM | GI50 (MDA-MB-468): 1.34 ± 0.41 µM | GI50 (SKOV-3): 4.22 ± 1.5 µM | pPRAS40 [6]: inhibit | GI50 (TOV21G): 8.62 ± 4.07 µM | GI50 (SK-N-AS): 11.3 µM
